Results on 47 compounds are retold here after patent US20080287445A1, “Prokineticin 2 receptor antagonists” (priority 2005, published 2008).

For this test, the target named is T1, GPR73 (prokineticin 1 receptor) (Homo sapiens, UniProt Q8TCW9).
T1 construct: expressed in transfected cells; host or cells: HEK 293
The test can be described thus: PK1 functional assay: Ca2+ mobilization screening for PK1 antagonists on the FLIPR. In kind it is cell-based. The settings on record: HEK 293 GPR73 cells, multiple values = multiple testing; for inhibition at 10 µM: HEK293, 10 μM compound, read-out: Ca^2+ Mobilization % Inh @ 10 μM; for IC50: PK1 ligand preparation at its EC50, read-out: Ca^2+ Mobilization IC50; for Ca^2+ Mobilization % Inh @ 10 μM: 10 μM compound. The method, boiled down:
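HEK293 cells expressing human GPR73 were loaded with Calcium Plus dye, then on FLIPR given compound for 4 min 15 s before PK1 ligand at its predetermined EC50. Baseline-subtracted fluorescence over 1 min 45 s gave percent inhibition versus maximal signal; IC50 fitted.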
In general terms: A change in cytosolic calcium serves as a functional read-out for many receptors and channels.

Structures are written as SMILES. Where “and” joins values, the source holds several entries; their conditions need not be identical. Identical values can stand only once. A value given as a limit tells only on which side of the number the result lay.

T1 sequence (Q8TCW9 whole entry, species assumed): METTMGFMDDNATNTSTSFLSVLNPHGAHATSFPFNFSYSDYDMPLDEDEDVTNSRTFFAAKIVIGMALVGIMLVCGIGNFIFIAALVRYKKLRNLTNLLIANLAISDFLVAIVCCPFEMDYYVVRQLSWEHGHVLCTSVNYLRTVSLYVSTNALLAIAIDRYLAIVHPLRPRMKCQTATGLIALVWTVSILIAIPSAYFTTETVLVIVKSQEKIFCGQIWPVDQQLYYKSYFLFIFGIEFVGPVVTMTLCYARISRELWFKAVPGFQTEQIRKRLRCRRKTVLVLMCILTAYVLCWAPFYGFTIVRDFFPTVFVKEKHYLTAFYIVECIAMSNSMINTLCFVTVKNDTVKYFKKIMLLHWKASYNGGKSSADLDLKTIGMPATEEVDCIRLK

In the case of `Cc1cc(C)c(CNc2nc(=O)n(Cc3ccc(C#N)cc3)c(=O)n2Cc2ccc(OC(F)F)cc2)cn1` [Cpd 164], the inhibition at 10 µM was determined as 64% and the IC50 was found to be 2010 nM.
Taken in the same sequence, the figures for `COc1ccc(Cn2c(=O)nc(NCc3cccnc3N)n(Cc3ccc(NC(C)=O)cc3)c2=O)cc1` [Cpd 37] were 86% and 250 nM.
For `COc1ccc(Cn2c(=O)nc(NCc3cnc(C)cc3C)n(Cc3ccc4occc4c3)c2=O)cc1` [Cpd 129], in that order: 88% and 120 nM.
Taken in the same sequence, the figures for `COc1ccc(Cn2c(NCc3ccc(-c4ccc(F)cc4)nc3)nc(=O)n(Cc3ccc(OC)cc3)c2=O)cc1` [Cpd 25] were 89% and 2740 nM.
Regarding `Cc1cc(C)c(CNc2nc(=O)n(Cc3ccc(CO)cc3)c(=O)n2Cc2ccc(OC(F)F)cc2)cn1` [Cpd 191], the inhibition at 10 µM came out at 50% and the IC50 amounted to 8370 nM.
As to `COc1ccc(Cn2c(SCc3cccnc3)cc(=O)n(Cc3ccc(OC)cc3)c2=O)cc1` [Cpd 211, 1,3-Bis-(4-methoxy-benzyl)-6-(pyridin-3-ylmethylsulfanyl)-1H-pyrimidine-2,4-dione], the inhibition at 10 µM was 52% and the IC50 stood at 4580 nM.
For `COc1ccc(Cn2c(NCc3c(OC)ccnc3N)nc(=O)n(Cc3ccc(OC)cc3)c2=O)cc1` [Cpd 58], in that order: 95% and 89 nM.
In the case of `COc1ccc(Cn2c(NCc3cccnc3NCCN)nc(=O)n(Cc3ccc(F)cc3)c2=O)cc1` [Cpd 30], the inhibition at 10 µM came out at 68% and the IC50 came out at 1240 nM.
In the case of `COc1ccc(Cn2c(=O)nc(NCc3cnc(C)cc3C)n(Cc3ccc(SC)cc3)c2=O)cc1` [Cpd 100], the inhibition at 10 µM is 62% and the IC50 is 533 nM.
Taken in the same sequence, the figures for `COc1ccc(Cn2c(=O)nc(NCc3cccnc3N)n(Cc3ccc(OC)cc3F)c2=O)cc1` [Cpd 205] were 102% and 106 nM.
As to `CCCCNc1ncccc1CNc1nc(=O)n(Cc2ccc(F)cc2)c(=O)n1Cc1ccc(OC)cc1` [Cpd 16], the inhibition at 10 µM amounted to 89% and the IC50 came out at 348 nM.
For `COc1ccc(Cn2c(=O)nc(NCc3cccnc3N)n(Cc3ccc(S(C)(=O)=O)cc3)c2=O)cc1` [Cpd 131], in that order: 100% and 122 nM.
Consider `COc1ccc(Cn2c(NCc3cccc(C(F)(F)F)n3)nc(=O)n(Cc3ccc(OC)cc3)c2=O)cc1` [Cpd 64], for which the “Ca^2+ Mobilization % Inh @ 10 μM” value is 51%; the inhibition at 10 µM came to 50%; the IC50 is 5260 nM and 8510 nM.
For the compound `COc1ccc(Cn2c(NCc3cnc(C)cc3C)nc(=O)n(Cc3ccc4c(c3)OCCO4)c2=O)cc1` [Cpd 209], the inhibition at 10 µM came to 51% and the IC50 is 7730 nM.
For `COc1ccc(Cn2c(=O)nc(NCc3cnc(C)cc3C)n(Cc3ccc(Cl)cc3)c2=O)cc1` [Cpd 117], in that order: 97% and 218 nM.
For `COc1ccc(Cn2c(NCc3cccnc3N3CCCCC3)nc(=O)n(Cc3ccc(OC)cc3)c2=O)cc1` [Cpd 13], in that order: 72% and 544 nM.
As for `COCCCCCn1c(NCc2cccnc2N)nc(=O)n(Cc2ccc(OC)cc2)c1=O` [Cpd 78, 6-[(2-Amino-pyridin-3-ylmethyl)-amino]-3-(4-methoxy-benzyl)-1-(5-methoxy-pentyl)-1H-[1,3,5]triazine-2,4-dione], the “Ca^2+ Mobilization % Inh @ 10 μM” value was determined as 95%; the inhibition at 10 µM stood at 94%; the IC50 is 36 nM and 113 nM.
Take `COCCNc1ncccc1CNc1nc(=O)n(Cc2ccc(F)cc2)c(=O)n1Cc1ccc(OC)cc1` [Cpd 28, 3-(4-Fluoro-benzyl)-1-(4-methoxy-benzyl)-6-{[2-(2-methoxy-ethylamino)-pyridin-3-ylmethyl]-amino}-1H-[1,3,5]triazine-2,4-dione]: the “Ca^2+ Mobilization % Inh @ 10 μM” value was 90% and 91%; the inhibition at 10 µM was found to be 85%.
For `COc1ccc(Cn2c(=O)nc(NCc3cnc(C)cc3C)n(Cc3ccc(N4C(=O)c5ccccc5C4=O)cc3)c2=O)cc1` [Cpd 152], the inhibition at 10 µM was 91% and the IC50 was 240 nM.
Consider `COc1ccc(Cn2c(NCc3cccnc3N)nc(=O)n(Cc3ccc([N+](=O)[O-])cc3)c2=O)cc1` [Cpd 47], for which the inhibition at 10 µM amounted to 80% and the IC50 came to 826 nM.
In the case of `COc1ccc(Cn2c(CCc3ccncc3)cc(=O)n(Cc3ccc(OC)cc3)c2=O)cc1` [Cpd 183], the inhibition at 10 µM turned out to be 68% and the IC50 turned out to be 2460 nM.
As to `COC(=O)c1ccc(Cn2c(=O)nc(NCc3cnc(C)cc3C)n(Cc3ccc(OC(F)F)cc3)c2=O)cc1` [Cpd 165], the inhibition at 10 µM was found to be 52% and the concentration for half-maximal inhibition (IC50) worked out at 6150 nM.
As for `COc1ccc(Cn2c(=O)nc(NCc3cccnc3N)n(Cc3cccc(OC)c3)c2=O)cc1` [Cpd 80], the inhibition at 10 µM is 70% and the IC50 stood at 2030 nM.
On to `COc1ccc(Cn2c(=O)nc(NCc3cccnc3N)n(Cc3cccc4cc[nH]c34)c2=O)cc1` [Cpd 171], for which the inhibition at 10 µM turned out to be 46% and the IC50 is greater than 10000 nM.
For `Nc1ncccc1CNc1nc(=O)n(Cc2ccc3snnc3c2)c(=O)n1Cc1ccc2c(c1)CCO2` [Cpd 242], the inhibition at 10 µM is 95% and the IC50 amounted to 251 nM.
For `COc1ccc(Cn2c(NCc3cccnc3NCCO)nc(=O)n(Cc3ccc(F)cc3)c2=O)cc1` [Cpd 29], in that order: 111% and 110 nM.
Taken in the same sequence, the figures for `COC(=O)c1ccc(Cn2c(=O)nc(NCc3cccnc3N)n(Cc3ccc(OC)cc3)c2=O)cc1` [Cpd 56] were 47% and greater than 10000 nM.
Taken in the same sequence, the figures for `COC(=O)CCCn1c(NCc2cnc(C)cc2C)nc(=O)n(Cc2ccc(OC)cc2)c1=O` [Cpd 153] were 81% and 703 nM.
With `COc1ccc(Cn2c(NCc3cccnc3N)nc(=O)n(Cc3cccc(OC)c3)c2=O)cc1` [Cpd 42], the inhibition at 10 µM is 49% and the IC50 is greater than 10000 nM.
`COc1ccc(Cn2c(=O)nc(NCc3cnc(C)cc3C)n(Cc3ccc4c(c3)CCO4)c2=O)cc1` [Cpd 128]: the “Ca^2+ Mobilization % Inh @ 10 μM” value was determined as 98%; the inhibition at 10 µM worked out at 93%; the IC50 is 126 nM and 214 nM.
With `COc1ccc(Cn2c(NCc3ccc(C(F)(F)F)cn3)nc(=O)n(Cc3ccc(OC)cc3)c2=O)cc1` [Cpd 235], the inhibition at 10 µM was found to be 98% and the IC50 is 85 nM.
As for `COc1ccc(Cn2c(=O)nc(NCc3cnc(C)cc3C)n(Cc3cc4ccccc4o3)c2=O)cc1` [Cpd 102], the inhibition at 10 µM turned out to be 99% and the IC50 was 110 nM.
As for `COc1ccc(Cn2c(C=Cc3ccncc3)cc(=O)n(Cc3ccc(OC)cc3)c2=O)cc1` [Cpd 184, 1,3-Bis-(4-methoxy-benzyl)-6-(2-pyridin-4-yl-vinyl)-1H-pyrimidine-2,4-dione], the inhibition at 10 µM is 65% and the IC50 was found to be 2690 nM.
In the case of `COc1ccc(Cn2c(NCc3cccnc3N3CCSCC3)nc(=O)n(Cc3ccc(F)cc3)c2=O)cc1` [Cpd 18], the inhibition at 10 µM is 58% and the IC50 is 5480 nM.
Take `CCOc1ccc(Cn2c(=O)nc(NCc3cnc(C)cc3C)n(Cc3ccc(OC)cc3)c2=O)cc1` [Cpd 107]: the inhibition at 10 µM was determined as 89% and the IC50 stood at 868 nM.
Taken in the same sequence, the figures for `COc1ccc(Cn2c(=O)nc(NCc3cccnc3N)n(Cc3ccc(OC(F)(F)F)cc3)c2=O)cc1` [Cpd 38] were 91% and 391 nM.
For `COc1ccc(Cn2c(=O)nc(NCc3cnc(C)cc3C)n(Cc3cccc(OC(F)(F)F)c3)c2=O)cc1` [Cpd 99], in that order: 91% and 100 nM.
`COc1ccc(Cn2c(=O)nc(NCc3cccnc3N)n(Cc3ccc(OC(C)(C)C)cc3)c2=O)cc1` [Cpd 135]: the inhibition at 10 µM amounted to 94% and the IC50 is 186 nM.
For `Cc1cc(CO)c(CNc2nc(=O)n(Cc3ccc4c(c3)CCO4)c(=O)n2Cc2ccc(OC(F)F)cc2)c(N)n1` [Cpd 251], in that order: 93% and 225 nM.
For `Cc1cc(C)c(CNc2nc(=O)n(Cc3ccc4occc4c3)c(=O)n2Cc2ccc(OC(F)F)cc2)cn1` [Cpd 178], in that order: 46% and 8650 nM.
Take `COc1ccc(Cn2c(NCc3c(COCc4ccccc4)cc(C)nc3N)nc(=O)n(Cc3ccc(OC)cc3)c2=O)cc1` [Cpd 250]: the inhibition at 10 µM worked out at 48% and the 50% inhibitory concentration (IC50) came out at 8630 nM.
`COc1ccc(Cn2c(=O)nc(NCc3cccnc3N)n(Cc3cccc(OC(F)(F)F)c3)c2=O)cc1` [Cpd 98]: the inhibition at 10 µM is 77% and the IC50 is 736 nM.
Regarding `COCCCCCn1c(NCc2c(C)cc(C)nc2N)nc(=O)n(Cc2ccc(OC)cc2)c1=O` [Cpd 224, 6-[(2-Amino-4,6-dimethyl-pyridin-3-ylmethyl)-amino]-3-(4-methoxy-benzyl)-1-(5-methoxy-pentyl)-1H-[1,3,5]triazine-2,4-dione], the inhibition at 10 µM was found to be 97%; the IC50 is 7 nM and 11 nM.
Turning to `COc1ccc(Cn2c(=O)nc(NCc3cccnc3N)n(Cc3cccc([N+](=O)[O-])c3)c2=O)cc1` [Cpd 82], the inhibition at 10 µM turned out to be 38% and the IC50 is greater than 10000 nM.
As for `COCCCCCn1c(NCc2cccnc2N)nc(=O)n(Cc2ccc(OC(F)F)cc2)c1=O` [Cpd 257], the inhibition at 10 µM is 76% and the concentration for half-maximal inhibition (IC50) stood at 1520 nM.
Taken in the same sequence, the figures for `COc1ccc(Cn2c(NCc3c(C)cc(C)nc3N3CCCCC3)nc(=O)n(Cc3ccc(OC)cc3)c2=O)cc1` [Cpd 213] were 45% and greater than 10000 nM.
Regarding `COc1ccc(Cn2c(NCc3cnc(C)cc3C)nc(=O)n(Cc3cccc(F)c3)c2=O)cc1` [Cpd 112], the inhibition at 10 µM is 74% and the IC50 was 2550 nM.

By IC50 is commonly meant the concentration that gives 50% inhibition.
